Data on 1 compound can be found in patent publication US20090257999A1, “Method of preventing contrast-induced nephropathy” (Inotek Pharmaceuticals Corporation, priority 2007, published 2009).

Holding throughout (assay type): in vivo, rat
The test system of assay [1] is diabetic rats. Put plainly: CIN animal model, Example 1: plasma urea and creatinine (glomerular dysfunction). The procedure: Male Wistar rats (150-200 g; Harlan Nossanr) were housed in a controlled environment and provided with standard rodent chow and water.
After 12 hours of fasting, the animals received a single 60 mg/kg intravenous (i.v.) injection of streptozotocin (Sigma, St. Louis, Mo.) in 10 mM sodium citrate buffer, pH 4.5 (see figure showing CIN model). Control non-diabetic animals were fasted and received citrate buffer alone. After 24 hours, animals with blood glucose levels greater than 250 mg/dl were considered diabetic. All experiments were performed 10 days following the induction of diabetes. The diabetic state was evaluated daily by determination of the blood glucose levels. Upon the induction of the diabetic state the animals were presenting with a major risk factor pre-disposing the animals to CIN after the administration of contrast media.
Ten days following the induction of diabetes the rats were anesthetized with 90 mg/kg ketamine i.m. and 10 mg/kg xylazine i.m. and were treated with the contrast agent iomeprol (10 mL/kg injected via the lateral tail vein) or with 0.9% normal saline. The contrast agent used was the low osmolar non-ionic monomer iomeprol (Iomeron, 400 mgI mL-1; Bracco SpA, Milan, Italy) with an osmolality of 726±34 mosmol/kg H2O. Upon completion of surgical procedures, the animals were randomly allocated to eleven different experimental groups as tabulated below:
(§1) Experimental model for assessing the effects of Metalloporphyrin A on CIN: Diabetic (n=8) for group #'s 1-9 or wild-type rats (n=10) for group #'s 10 and 11 were treated with drug 60 min prior to contrast agent administration. At the “0” time point, Iomeprol was administered with ensuing drug intervention dosing every 12 hours for Metalloporphyrin A from 24-84 hours or every 24 hours for NAC from 24-72 hours. At the 96 hour time point, kidneys were harvested for histopathology, MPO and MDA measurements. From 0-96 hours, plasma samples from all animals per group were screened for urea, creatinine, fractional excretion of Na^+ and NGAL.
At the indicated time point blood samples were collected via the lateral tail vein into S1/3 tubes containing serum gel. The samples were centrifuged (6000 r.p.m. for 3 min) to separate plasma. All plasma samples were analyzed for biochemical parameters within 24 hours of collection. Plasma concentrations of urea and creatinine were measured as indicators of impaired glomerular function. Urine samples were collected at 96 hour after contrast agent administration and the volume of urine produced was recorded. Urine concentrations of Na^+ were measured and were used in conjunction with plasma Na^+ concentrations to calculate fractional excretion of Na^+ (FENa) using standard formulae, which was used as an indicator of tubular function.

Assay [2] relates to diabetic rats. As to the kind of experiment: CIN model, Example 5: INO-1001 alone and with NAC in diabetic rats. The conditions noted are these: diabetic rats + Iomeprol, NAC 30 mg/kg i.v., INO-1001 10 mg/kg ip, or both, at −30 min. The procedure:
Male Wistar rats (150-200 g; Harlan Nossanr) were housed in a controlled environment and provided with standard rodent chow and water. Diabetes was induced after 12 h of fasting. The animals received a single 60 mg/kg intravenous (i.v.) injection of streptozotocin (Sigma, St. Louis, Mo.) in 10 mM sodium citrate buffer, pH 4.5 (see figure). Control non-diabetic animals were fasted and received citrate buffer alone. After 24 hours, animals with blood glucose levels greater than 250 mg/dl were considered diabetic. The diabetic state was confirmed by evaluating the blood glucose levels. Ten days following the induction of diabetes rats were anesthetized with 90 mg/kg ketamine i.m. and 10 mg/kg xylazine i.m. and were treated with the contrast agent iomeprol (10 mL/kg injected via the lateral tail vein) or with 0.9% normal saline. The contrast agent used was the low osmolar non-ionic monomer iomeprol (Iomeron, 400 mgI mL-1; Bracco SpA, Milan, Italy) with an osmolality of 726±34 mosmol/kg H2O.
GROUP 1: Diabetic rats only+Placebo (i.v.). GROUP 2: Diabetic rats+Iomeprol+Placebo (i.v.) given at −30 min. GROUP 3: Diabetic rats+Iomeprol+NAC (30 mg/kg, i.v.) given at −30 min. GROUP 4: Diabetic rats+Iomeprol+INO-1001 (10 mg/kg, ip) given at −30 min. GROUP 5: Diabetic rats+Iomeprol+NAC (30 mg/kg, i.v.)+INO-1001 (10 mg/kg, ip) given at −30 min.
Blood samples were collected via the lateral tail vein into S1/3 tubes containing serum gel at 24 hours. The samples were centrifuged (6000 r.p.m. for 3 min) to separate plasma. All plasma samples were analyzed for biochemical parameters within 24 hours after collection. Plasma and urine concentrations of creatinine were measured as indicators of impaired glomerular function. Creatinine clearance was calculated using the following formula (=UV/P), where U refers to Creatinine concentration in urine, V to urine volume/min and P to serum creatinine. Plasma and urine concentrations of NGAL (neutrophil gelatinase associated lipocalin) levels and urine αGST (alpha glutathione S-transferase) and NGAL levels were evaluated.
Protein concentration in urine was determined by Bio-Rad DC Protein Assay (BioRad, Richmond Calif.). The Bio-Rad DC protein assay is a colorimetric assay for protein concentration. The reaction is similar to the well-documented Lowry assay (Lowry et al., Protein measurement with the Folin phenol reagent, J Biol Chem 193, 265-275 (1951). The Bio-Rad DC protein assay requires only a single 15-minute incubation, and absorbance is stable for a least 2 hours. The amount of protein is expressed in mg/ml.

Assay [3] relates to diabetic rats. Put plainly: Histologic evaluation of kidney outer medulla damage, Example 1. As to conditions: at 96 hours. The procedure: as §1
At postmortem, a […] section of kidney was removed and placed in formalin and processed through to wax. […] sections were cut and stained with hematoxylin and eosin. Histologic assessment of tubular necrosis was determined semi-quantitatively using a method modified from McWhinnie et al, Transplantation. 42(4):352-81986, 1986.
Histologic assessment of outer medulla damage was examined by an experienced morphologist, who was not aware of the sample identity. […]

[4] abbreviates: diabetic rats + i.v. Iomeprol 10 ml/kg, Metalloporphyrin A 1000 μg/kg or NAC 10 mg/kg i.p., at 48, 72 and 96 hours.
Where [5] appears, read: diabetic rats + i.v. saline (no contrast agent), NAC 10 mg/kg i.p., at 72 and 96 hours.

`CC(=O)N[C@@H](CS)C(=O)O` [NAC, N-acetylcysteine]: in assay [1] (setting [4]), the plasma creatinine concentration entry was “reductions” and the plasma urea concentration entry is recorded as “reductions”. In addition, in assay [1] (setting [5]), the plasma creatinine concentration result is reported as “significantly reduced the increase” and the plasma urea concentration entry is reported as “significantly reduced the increase”. In addition, the plasma creatinine result in assay [2] (24 h) is reported as “significant reductions”. For the same compound, in assay [2] (24 hours), the “plasma NGAL concentration” value is reported as “significant reductions”, the “total protein concentration in the urine” value was “significant reductions”, the “urine NGAL concentration” value was “significant reductions” and the “urine αGST” value is “significant reductions”. Besides, the “kidney injury (histological score)” value in assay [3] (diabetic rats + i.v. Iomeprol, Metalloporphyrin A 30-1000 μg/kg or NAC 10 mg/kg i.p.) is “significant reductions”. For the same compound, the “kidney injury (histological score)” value in assay [3] (diabetic rats + i.v. saline (no contrast agent), Metalloporphyrin A 1000 μg/kg or NAC 10 mg/kg i.p.) is listed as “significantly reduced”.
